Drawing on US5656603A (Loyola University of Chicago, priority 1995, dated 1997), this text covers IC50 for one molecule.

Structures are written as SMILES.

This experiment deals with T1, aminopeptidase M (EC 3.4.11.2) (Sus scrofa, UniProt P15145).
T1 construct: Purified porcine kidney prolidase and purified porcine kidney aminopeptidase M was obtained from Sigma; purchased Sigma (St. Louis, Mo.); host or cells: porcine kidney
T1 sequence (P15145 1-963): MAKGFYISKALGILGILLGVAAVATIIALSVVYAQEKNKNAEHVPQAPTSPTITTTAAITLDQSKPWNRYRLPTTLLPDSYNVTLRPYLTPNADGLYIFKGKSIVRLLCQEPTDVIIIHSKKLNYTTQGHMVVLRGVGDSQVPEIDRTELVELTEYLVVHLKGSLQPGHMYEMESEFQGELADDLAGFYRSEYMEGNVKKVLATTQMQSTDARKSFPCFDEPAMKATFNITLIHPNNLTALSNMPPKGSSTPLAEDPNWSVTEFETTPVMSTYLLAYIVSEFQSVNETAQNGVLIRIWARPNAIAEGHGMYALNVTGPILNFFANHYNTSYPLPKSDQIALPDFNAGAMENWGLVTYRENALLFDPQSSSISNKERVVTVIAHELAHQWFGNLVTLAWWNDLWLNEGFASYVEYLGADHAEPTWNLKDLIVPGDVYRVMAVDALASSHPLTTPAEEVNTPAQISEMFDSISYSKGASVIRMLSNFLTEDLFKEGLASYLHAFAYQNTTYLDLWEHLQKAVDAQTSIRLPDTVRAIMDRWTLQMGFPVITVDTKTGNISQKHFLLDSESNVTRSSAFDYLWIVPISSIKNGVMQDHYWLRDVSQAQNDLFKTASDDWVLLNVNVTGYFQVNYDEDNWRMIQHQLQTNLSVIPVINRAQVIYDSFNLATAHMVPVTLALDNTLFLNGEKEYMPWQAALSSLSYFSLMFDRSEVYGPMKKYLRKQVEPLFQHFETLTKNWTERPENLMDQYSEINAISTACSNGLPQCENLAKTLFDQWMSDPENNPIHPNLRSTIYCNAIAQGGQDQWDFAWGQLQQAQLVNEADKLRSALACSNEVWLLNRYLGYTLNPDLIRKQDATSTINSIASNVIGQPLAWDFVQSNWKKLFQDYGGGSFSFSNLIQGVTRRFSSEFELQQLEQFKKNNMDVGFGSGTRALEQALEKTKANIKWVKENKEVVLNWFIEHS
Briefly: Specificity of apstatin: aminopeptidase M. The class given is biochemical. To be noted: purified, porcine kidney; Ala-β-NA, pH 6.8, FLUO. The protocol: Specificity of Apstatin--Apstatin was assayed for its ability to inhibit several other peptidases. […] Unless otherwise indicated, the source of each enzyme activity was a detergent extract of bovine lung prepared as described in (12-13). Activities were determined by a modification of the fluorescent assay described above (indicated by "FLUO") or by HPLC separation and quantitation of reaction products using the method described in (12) (method "HPLC-1") or the method described below (method "HPLC-2"). […]

As a reminder, the IC50 is the point on the concentration scale where inhibition reaches its midpoint. `C[C@H](NC(=O)[C@@H]1CCCN1C(=O)[C@@H]1CCCN1C(=O)[C@@H](O)[C@H](N)Cc1ccccc1)C(N)=O` [apstatin, N-[(2S, 3R)-3-amino-2-hydroxy-4-phenylbutanoyl]-L-prolyl-L-prolyl-Lalaninamide] showed an IC50 of 600 µM.
